In assay [1] the target is T1, CAT-1 (carnitine acyltransferase 1) (Rattus norvegicus, UniProt Q63704).
T1 construct: This preparation is used as the isolated mitochondrial preparation; from tissue; host or cells: rat heart (atria removed), isolated mitochondria
T1 sequence (Q63704 1-772): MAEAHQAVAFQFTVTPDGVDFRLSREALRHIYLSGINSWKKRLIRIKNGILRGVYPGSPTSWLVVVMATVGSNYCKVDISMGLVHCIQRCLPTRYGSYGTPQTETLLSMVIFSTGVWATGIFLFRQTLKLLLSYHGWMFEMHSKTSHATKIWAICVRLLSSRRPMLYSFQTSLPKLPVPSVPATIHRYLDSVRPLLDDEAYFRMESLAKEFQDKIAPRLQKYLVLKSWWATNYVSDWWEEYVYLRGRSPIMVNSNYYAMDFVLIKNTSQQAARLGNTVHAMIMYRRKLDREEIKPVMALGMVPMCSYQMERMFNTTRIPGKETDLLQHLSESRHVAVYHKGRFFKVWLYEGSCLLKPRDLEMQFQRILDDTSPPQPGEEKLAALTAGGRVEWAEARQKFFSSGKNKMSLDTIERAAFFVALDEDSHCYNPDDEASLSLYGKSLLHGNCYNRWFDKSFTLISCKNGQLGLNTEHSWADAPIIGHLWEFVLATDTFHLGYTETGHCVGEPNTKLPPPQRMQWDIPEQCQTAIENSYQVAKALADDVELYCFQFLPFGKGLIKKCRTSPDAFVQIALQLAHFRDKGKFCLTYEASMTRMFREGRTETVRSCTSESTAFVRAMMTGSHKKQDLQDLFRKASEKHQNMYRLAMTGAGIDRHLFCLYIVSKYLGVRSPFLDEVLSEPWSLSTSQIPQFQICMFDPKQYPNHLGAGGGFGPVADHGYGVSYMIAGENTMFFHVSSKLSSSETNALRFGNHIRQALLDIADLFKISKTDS
Kind of assay: Secondary Screen--Inhibition of CAT-1 in intact cardiac myocytes (hypoxia-induced increase in long-chain acylcarnitines). It is filed as cell-based. Details: inhibition: dose or concentration left out as unconfirmed. Conditions: isolated rat cardiac myocytes; for IC50: 50% inhibition of hypoxia-induced increase in long-chain acylcarnitines.
Experimental: Secondary Screen--Inhibition of CAT-1 in intact Cardiac Myocytes
(a) Preparation of Isolated Rat Cardiac Myocytes
Four hearts are excised from anesthetized rats and perfused retrogradly via the Langendorf technique. Each heart receives 100 mL of Krebs (NaCl, 118.4 mM; KCL, 4.6 mM; NaH2 PO4, 1.0 mM; NaHCO3, 20 mM; MgSO4, 2 mM; CaCl2, 50 μM; glucose, 11.0 mM), 100 mL of Ca++ free Krebs and finally 100 mL of 0.5% collagenase (Boehringer Mannhelm, type 1) in Hepes (NaCl, 115 mM; KCl, 5 mM; sucrose, 35 mM; glucose, 10 mM; Hepes, 10 mM; taurine, 4 mM; MgSO4, 2 mM; CaCl2, 50 μM). After these perfusions, the hearts are chopped into pieces, approx. 0.5 cm×0.5 cm and placed in four 125 mL plastic bottles along with 25 mL of collagenase/Hepes situated in a water bath maintained at 35° C. The pieces of cardiac tissue in each bottle are agitated by using a Harvard respirator connected to four glass syringes, which sucks the tissue up and down each tube during each respiratory cycle. After fifteen minutes, the collagenase/Hepes is removed and replaced with fresh collegenase/Hepes and the process repeated. The collegenase/Hepes from the subsequent fifteen minute harvests are centrifuged at 500 g to pellet the cells which are then resuspended in Hepes buffer. After six harvests, all cells are pelleted, resuspended in 2×26.5 mL of Hepes plus BSA (350 mg) and layered on top of 2×percoll gradients (21.15 mL percoll, 2.35 mL NaCl, 6 drops acetic acid). This is centfifuged at 3000 g for eight minutes forming a percoll gradient which results in viable cells being separated from damaged cells. The viable cells are removed, washed with Hepes and finally resuspended in 25 mL of Hepes.
The isolated cardiac myocytes (2 mL; approximately 1×10^6 cells) are separated into six glass pods. Into four of these are placed selected concentrations of the compound to be tested, and the cells are incubated for twenty minutes, after which the pods are centrifuged at 300 g for three minutes. 300 μL of normoxic Hepes is placed in one of the pods not containing compound and then all pods are placed in a hypoxic chamber (N2 atmosphere). Oxygen is fed via small bore steel tubes to the pod containing the normoxic buffer, while the other five pods receive pre-purified argon (99.998% pure). After two minutes, Hepes (pre-gassed with argon for at least twelve hours) is fed into the five hypoxic pods. This hypoxic environment (pO2 <10 mm Hg) is maintained for twenty minutes, after which the cells and pods are frozen by contact with a metal block precooled in liquid N2. The pods are then removed from the chamber and stored at -70° C. The carnitine assay is performed, as described below in (c), to determine the amount of long-chain acylcarnitine in the cells from the normoxic, hypoxic and hypoxic plus compound samples. […] Thus the IC50 in this screen is the concentration of test compound which produces a 50% inhibition of the hypoxia-induced increase in long-chain acylcarnitines.
(c) Long-chain Acylcarnitine Assay.
The frozen cell samples are thawed, mixed and homogenized with 40 μL of 70% PCA. The homogenate is transferred to eppendorf tubes while the homogenization tube and the glass pod is rinsed with 500 μL of 7% PCA, with the rinse being added to the eppendorf tube. This is then centrifuged at 1000 g for two minutes to pellet the precipitate (containing the long-chain acylcarnitine) and the supernatant is discarded. The pellet is washed twice with 500 μL of 7% PCA, the supernatants being discarded. The pellet is then hydrolyzed (to separate the acyl unit from carnitine to yield free carnitine) by the addition of 200 μL of aleionized H2 O and 50 μL of 5N KOH and incubated at 70° C. for ninety minutes.

Assay [2] deals with T1, CAT-1 (carnitine acyltransferase 1). Kind of assay: Primary Screen--Inhibition of CAT-1 in isolated mitochondria. It is filed as biochemical. As to conditions: rat heart mitochondria, reduction of palmitoyl carnitine formation by 50%; read-out: Primary Screen IC50.
Experimental: Primary Screen--Inhibitors of CAT-1 in 1Mitochondria
(a). Preparation of Mitochondria
The heart is rapidly removed from an anesthetized rat (sodium pentabarbitol) and placed in ice-cold homogenization buffer (sucrose, 250 mM; Tris, 10 mM; EDTA, 1 mM; BSA, 0.01%; pH=7.4). The atria and extraneous tissue are removed and the remainder is chopped with scissors. The pieces are rinsed in homogenization buffer before being homogenized in 10 mL of the same buffer for 5-7 seconds. The homogenate is then diluted with homogenization buffer (40 total volume) and centrifuged at 200 g for 20 minutes. The supernatant is withdrawn and centrifuged at 7000 g for 20 minutes and the resulting pellet is isolated, resuspended in 40 mL of homogenization buffer and centrifuged once more at 7000 g for 20 minutes. The isolated pellet is resuspended in 10 mL of homogenization buffer and stored at 4° C. until use. This preparation is used as the isolated mitochondrial preparation.
(b). Inhibition of CAT-1 assay
Isolated mitochondria (20 μL) are incubated with 60 μL of Tris/sucrose buffer (sucrose, 500 mM; Tris, 20 mM; KCl, 100 mM; EDTA, 2 mM; pH=7.0 plus 83 μM palmitoyl CoA, and BSA, 0.8 mg/mL and 10^-4 to 10^-10 M of the drug to be tested. After 10 minutes at 30° C., the reaction is started by addition of 10 μL of ^3 H-carnitine (final concentration=250 μM). After 5 minutes, the reaction is terminated by the addition of ice cold 70% perchloric acid (PCA). The precipitated solids so formed, containing the insoluble product of the enzyme palmitoyl carnitine, are captured on filter paper. The filter paper is washed with 7% PCA, then dried and placed in scintillation vials with 10 mL of scintillant (Aquasol, New England Nuclear) and counted for radioactivity. The rate of the reaction is assessed by the difference in radioactivity between zero time and five minutes in the absence of test compound. The ability of test compounds at selected concentrations to inhibit CAT-1 is determined by their ability to reduce the formation of the radioactive product. The IC50 of the test compound is the concentration of test compound that reduces the formation of radioactive product by 50%.

Here are results for 32 compounds from patent US5344843A, “Cat-1 inhibitors, pharmaceutical compositions and methods of use” (Hoffman-La Roche Inc., priority 1992, dated 1994).

Structures can show the parent of a compound that is named as a salt.

Regarding `CCC(C)(C)C(=O)OCc1cccc(C)c1CCCOc1ccc(C(=O)C(=O)O)cc1` [Example 223, 4-[3-[2-[(2,2-dimethyl-1-oxobutoxy)methyl]-6-methylphenyl]propoxy]-alpha-oxobenzeneacetic acid], the IC50 in assay [1] was found to be 90 nM; in assay [2] it was 1100 nM. As to `CCC(C)(C)C(=O)OCc1cccc(C)c1OCCOc1ccc([C@H](N)C(=O)O)cc1` [Example 298, (S)-alpha-amino-4-[2-[2-[(2,2-dimethyl-1-oxobutoxy)methyl]-6-methylphenoxy]ethoxy]benzeneacetic acid], the IC50 in assay [1] turned out to be 30000 nM; in assay [2] it was 2500 nM. The corresponding values for `O=C(O)C(=O)c1ccc(OCCOc2ccc3ccccc3c2)cc1` [Example 86, 4-[[2-(2-naphthalenyloxy)ethyl]oxy]-alpha-oxobenzeneacetic acid] are 3000 nM and 80 nM. As to `O=C(O)/C(=N/O)c1ccc(OCCOc2ccc3ccccc3c2)s1` [Example 302, (Z)-alpha-(hydroxyimino)-5-[2-(2-naphthalenyloxy)ethoxy]-2-thiopheneaceticacid], the values for the IC50 in assay [1] and in assay [2] were 900 nM and 240 nM, respectively. In the same order, the values of `CCC(C)(C)C(=O)OCc1cccc(C)c1OCCSc1ccc(C(=O)C(=O)O)cc1` [Example 175, 4-[[2-[2-[(2,2-dimethyl-1-oxobutoxy)methyl]-6-methylphenoxy]ethyl]thio]-alpha-oxobenzeneacetic acid] are 200 nM and 500 nM. Consider `O=C(O)C(=O)c1c(F)c(F)c(OCCOc2ccc3ccccc3c2)c(F)c1F` [Example 205, 2,3,5,6-tetrafluoro-4-[2-(2-naphthalenyloxy)ethoxy]-alpha-oxobenzeneaceticacid], for which at 25 µM the inhibition in assay [1] (@ 25 μM, hypoxia) was 35%. Further, in assay [2], the IC50 is 7200 nM. On to `C[N+](C)(C)CCOC(=O)C(=O)c1ccc(OCCOc2ccc3ccccc3c2)s1` [Example 7, 2-[[5-[[2-(2-naphthalenyloxy)ethyl]oxy]-alpha-oxo-2-thiopheneacetyl]oxy]-N,N,N-trimethylethanaminium iodide], for which the concentration for half-maximal inhibition (IC50) in assay [1] came out at 100 nM; in assay [2] it was 30 nM.

Turning to `CCC(C)(C)C(=O)OCc1cccc(C)c1OCCOc1ccc(C(=O)C(=O)O)cc1` [Example 136, 4-[[2-[2-[(2,2-Dimethyl-1-oxobutoxy)methyl]-6-methylphenoxy]ethyl]oxy]-alpha-oxobenzeneacetic acid (2:1) hydrate], the figures for the IC50 in assay [1] and in assay [2] were 900 nM and 7700 nM, respectively. For the compound `O=C(O)C(=O)c1ccc(OCC(=O)N2CCC(c3ccccc3)CC2)cc1` [Example 245, alpha-oxo-4-[2-oxo-2-(4-phenyl-1-piperidinyl)ethoxy]benzeneacetic acid], the inhibition in assay [1] (hypoxia) was determined as 33%. For the same compound, the IC50 in assay [2] worked out at 60 nM. The corresponding values for `O=C(O)C(=O)c1ccc(OCCCn2c(=O)c3ccccc3c3ccccc32)cc1` [Example 262, 4-[3-(5,6-dihydro-6-oxo-5-phenanthridinyl)propoxy]-alpha-oxobenzeneacetic acid] are 99% and 1000 nM. In the case of `O=C(O)C(=O)c1ccc(SCCOC2CCCCCCC2)cc1` [Example 173, 4-[[2-(cyclooctyloxy)ethyl]thio]-alpha-oxobenzeneacetic acid], the IC50 came out at 300 nM in assay [1] and 800 nM in assay [2]. For the compound `CCC(C)(C)C(=O)OCc1cccc(C)c1C#CCOc1ccc(C(=O)C(=O)O)cc1` [Example 212, 4-[3-[2-[(2,2-dimethyl-1-oxobutoxy)methyl]-6-methylphenyl]-2-propynyloxy]-alpha-oxobenzeneacetic acid (1:1) morpholine salt], in assay [1] (hypoxia), the inhibition stood at 47%. In addition, in assay [2], the IC50 turned out to be 470 nM.

With `O=C(O)C(=O)c1ccc(CCCOc2ccc3ccccc3c2)cc1` [Example 143, 4-[3-(2-naphthalenyloxy)propyl]-alpha-oxobenzeneacetic acid], the concentration for half-maximal inhibition (IC50) stood at 12000 nM in assay [1] and 2700 nM in assay [2]. The corresponding values for `O=C(O)C(=O)c1ccc(OCCOc2ccc3ccccc3c2)c(Cl)c1` [Example 185, 3-chloro-4-[2-(2-naphthalenyloxy)ethoxy]-alpha-oxobenzeneacetic acid] are 12000 nM and 80 nM. As for `O=C(O)C(=O)c1ccc(OCCOc2ccccc2)cc1` [Example 37, alpha-oxo-4-[[2-(phenoxy)ethyl]oxy]benzeneacetic acid], the IC50 in assay [1] came out at 37000 nM; in assay [2], 2000 nM. In the same order, the values of `O=C(COc1ccc(C(=O)C(=O)O)cc1)NC1CCCCCCC1` [Example 247, 4-[2-(cyclooctylamino)-2-oxoethoxy]-alpha-oxobenzeneacetic acid] are 30000 nM and 400 nM. The corresponding values for `O=C(O)C(=O)c1ccc(OCCOC2CCCCCCC2)s1` [Example 9, 5-[[2-(cyclooctyloxy)ethyl]oxy]-alpha-oxo-2-thiopheneacetic acid] are 8000 nM and 1800 nM.

On to `O=C(OCC(O)CO)C(=O)c1ccc(OCCOc2ccc3ccccc3c2)cc1` (racemic) [Example 104, rac.-4-[[2-(2-naphthalenyloxy)ethyl]oxy]-alpha-oxobenzeneacetic acid 2,3-dihydroxypropyl ester], for which the IC50 in assay [1] came to 1200 nM; in assay [2], 40 nM. Compound `CC(C)n1c(/C=C/COc2ccc(C(=O)C(=O)O)cc2)c(-c2ccc(F)cc2)c2ccccc21` [Example 241, (E)-4-[3-[3-(4-fluorophenyl)-1-(1-methylethyl)-1H-indole-2-yl]-2-propenyloxy]-alpha-oxobenzeneacetic acid (1:1) morpholine salt] had an IC50 in assay [1] of 12000 nM. In turn, `CC(C)c1nc(-c2ccccc2)n(-c2ccc(F)cc2)c1/C=C/COc1ccc(C(=O)C(=O)O)cc1` [Example 243, (E)-4-[3-[1-(4-fluorophenyl)-4-(1-methylethyl)-2-phenyl-1H-imidazol-5-yl]-2-propenyloxy]-alpha-oxobenzeneacetic acid] showed an IC50 in assay [1] of 7000 nM.

For `COc1ccc(OCCOc2ccc(C(=O)C(=O)O)cc2)cc1` [Example 61, 4-[[2-(4-methoxyphenoxy)ethyl]oxy]-alpha-oxobenzeneacetic acid], the IC50 in assay [2] amounted to 2000 nM. Still for that read-out and setting: in the case of `CCCc1c(OCCCOc2ccc(C(=O)C(=O)O)cc2)ccc(C(=O)O)c1O` [Example 269, 4-[3-[4-carboxy-3-hydroxy-2-propylphenoxy)propoxy]-alpha-oxobenzeneacetic acid] it was 1800 nM; in that of `Cc1cc(C)c(C(=O)COc2ccc(C(=O)C(=O)O)cc2)c(C)c1` [Example 292, 4-[2-oxo-2-(2,4,6-trimethylphenyl]ethoxy]-alpha-oxobenzeneacetic acid], 4500 nM.

`O=C(O)C(=O)c1ccc(OCCOc2ccc(Cl)cc2)cc1` [Example 45, 4-[[2-(4-chlorophenoxy)ethyl]oxy]-alpha-oxobenzeneacetic acid]: the concentration for half-maximal inhibition (IC50) in assay [2] turned out to be 300 nM. As to `CC(C)c1cccc(-c2ccc(F)cc2)c1OCCOc1ccc(C(=O)C(=O)O)cc1` [Example 234, 4-[2-[4'-fluoro-3-(1-methylethyl)[1,1'-biphenyl]-2-yloxy]ethoxy]-alpha-oxobenzeneacetic acid], the inhibition in assay [1] (hypoxia) was 90%. With `CCC(C)(C)C(=O)Oc1cccc2ccc(OCCOc3ccc(C(=O)C(=O)OC)cc3)cc12` [Example 133, 4-[[2-[8-(2,2-dimethyl-1-oxobutoxy)-2-naphthalenyloxy]ethyl]oxy]-alpha-oxobenzeneacetic acid methyl ester], the IC50 in assay [2] stood at 35000 nM. Consider `O=C(O)C(=O)c1ccc(SCCOc2ccc3ccccc3c2)cc1` [Example 149, 4-[[2-(2-naphthalenyloxy)ethyl]thio]-alpha-oxobenzeneacetic acid], for which the IC50 in assay [2] turned out to be 80 nM. Turning to `O=C(O)C(=O)c1ccc(CCCNC(=O)c2ccc3ccccc3c2)cc1` [Example 147, 4-[3-[[(2-naphthalenyl)carbonyl]amino]propyl]-alpha-oxobenzeneacetic acid], the IC50 in assay [2] is 6200 nM.

On to `COc1cc(OCCOc2ccc(C(=O)C(=O)O)cc2)cc(OC)c1OC` [Example 65, 4-[[2-(3,4,5-trimethoxyphenoxy)ethyl]oxy]-alpha-oxobenzeneacetic acid], for which the IC50 in assay [2] was 3000 nM. In the case of `O=C(O)C(=O)c1ccc(OC/C=C\c2ccccc2)cc1` [Example 33, (Z)-alpha-oxo-4-[(3-phenyl-2-propenyl)oxy]benzeneacetic acid], the half-inhibitory concentration (IC50) in assay [2] was determined as 1000 nM. On the same count and under the same terms, in the case of `COCCOc1ccc(C(=O)C(=O)O)cc1` [Example 97, 4-[[2-(methoxy)ethyl]oxy]-alphaoxobenzeneacetic acid] it was 30000 nM; in that of `O=C(O)C(=O)c1ccc(OCCCCc2cccnc2)cc1` [Example 123, alpha-oxo-4-[4-(3-pyridinyl)butoxy]benzeneacetic acid], 1500 nM.

As usually defined, the IC50 is the midpoint of a concentration-inhibition curve. Broadly, the inhibition is the relative decrease from the control value, in per cent.
